# According to US20220152012A1 (The Regents of the University of California, priority 2020, published 2022):
# Read-outs that look alike come from different tables or passages of the source.
# Assays:
# [1] = tested on: human hepatic stellate cells from non-fibrotic subjects; assay: Prevention of TGF-β or H2O2-induced collagen production (Sirius Red); format: cell-based; settings: inducer alone: H2O2 25 μM or TGF-β 20 ng/mL, 24 h, vs vehicle
# Description: Hepatic stellate cell fibrosis quantification.
# Hepatic stellate cell fibrosis was assessed by measuring collagen content by Sirius Red staining kit.
# [2] = tested on: human hepatic stellate cells from normal non-fibrosis subjects; assay: ROS (DCFDA) after oxidative stress induced by palmitic acid or H2O2; format: cell-based; settings: inducer alone: palmitic acid 0.5 mM or H2O2 25 μM, vs vehicle
# Description: Reactive Oxygen Species (ROS) quantification. ROS production, as an index of oxidative stress, in stellate cells was measured using DCFDA fluorescence as described previously. In brief, cells were incubated with DCFDA (10 μmol/L) for 30 min.
# [3] = cited from earlier work
# [4] = cited from earlier work; remark: listed apart in the source
# [5] = cited from earlier work; remark: listed apart in the source
molecule,measurement,setting,value
"OO [H2O2, hydrogen peroxide]",increase of collagen content,[1],266%
same,induction of stellate cell ROS levels,[2],5.2 fold
O=C(O[C@H]1[C@H](OC(=O)c2cccnc2)[C@@H](OC(=O)c2cccnc2)[C@H](OC(=O)c2cccnc2)[C@@H](OC(=O)c2cccnc2)[C@H]1OC(=O)c1cccnc1)c1cccnc1 [inositol hexanicotinate],peak plasma level of nicotinic acid,"[3]; 1,000 mg of IHN (˜910 mg nicotinic acid equivalent), oral",0.2 µg/mL
same,time for hydrolysis of the ester bonds and release of free nicotinic acid,[3]; human serum,more than 48 hours
same,time of peak plasma levels of free nicotinic acid,"[3]; oral doses of 0.8 to 4.2 g of inositol hexanicotinate, humans",6 to 12 h
same,"gastrointestinal absorption, average of orally ingested dose absorbed",[3]; oral,70%
same,tolerability,[4]; in vivo,well tolerated
same,management of dyslipidemia,[4]; vs placebo (Keenan 2010),no better than placebo
"O=C(O)c1cccnc1 [niacin, nicotinic acid]",absorption,[5]; oral amounts of 3-4 grams,nearly complete
same,time of peak plasma levels of free nicotinic acid,[5]; oral dose of 1000 mg of nicotinic acid,0.5 to 1 h
same,eliminated by the kidneys as unchanged niacin or nicotinuric acid,[5]; oral pharmacologic dose,Approximately 88%
same,peak plasma level of nicotinic acid,[5]; single oral dose of 1000 mg nicotinic acid,30 µg/mL
CCCCCCCCCCCCCCCC(=O)O [palmitic acid],induction of stellate cell ROS levels,[2],3.6 fold
TGF-β,increase of collagen content,[1],233%
